Experimental data from publication PMC2211469, “Viroporin potential of the lentivirus lytic peptide (LLP) domains of the HIV-1 gp41 protein” (Virology Journal, 2007).

Experiment: Tb3+/DPA microwell plate leakage assay
Settings: positive control, complete dissolution of membranes
Experimental: The Tb^3+/DPA assay, a high throughput leakage assay developed by Rausch and Wimley, 2001, was employed in order to determine each LLP peptide's ability to disturb lipid membrane integrity. […] To this end, Tb^3+ was entrapped in Large Unilamellar Vesicles composed of 10% POPG: 90% POPC diluted in a KPO4 buffer containing DPA. Only upon membrane disruption was terbium able to come into contact with DPA in the buffer generating a fluorescent complex. Various ratios of peptide:lipid were incubated together in a microwell plate and the resulting fluorescence emissions were monitored under UV irradiation. LLP -1, -2, and -1D peptides used in this study were not NBD labeled, but were N-terminally labeled with a tryptophan residue for quantification.
To prepare Tb^3+ LUVs, lipids were resuspended to 100 mM concentration in 50 mM Tb^3+, 100 mM sodium citrate, 10 mM TES pH 7.2. Gel Filtration on Sephadex G-200 was used to elute LUVs and remove unencapsulated Tb^3+ in a buffer of 10 mM TES and 325 mM NaCl. Final lipid concentrations were determined by phosphate analysis. […] Finally, samples were heated in a water bath with AmMo and ascorbic acid for 10–15 minutes and absorbance at 660 nm was measured. Concentrations were determined by comparison to a standard curve generated using known KPO4 concentrations. […]

For Triton X-100, the leakage of vesicles was 100%.
